Experimental data published in patent publication US7102056B1, “Compositions and methods for plant transformation and regeneration” (The Regents of the University of California, priority 1997, dated 2006).

Key:
Galena immature embryos = experiment: Callus-induction frequency on callus-induction media (CIM); format: cell-based, barley (Hordeum vulgare L.); conditions: Galena half embryos on CIM; 2 to 3 weeks after initial culturing; means ± SD of three replicates
Procedure: (§1) Immature embryos (about 1.5-2.5 mm in size) were taken from spikes approximately three months in age that were surface-sterilized in 20% (v/v) bleach (5.25% sodium hypochlorite) for 7 min. washed 5 min with sterile water three times, bisected longitudinally, and placed on CIM. Ten half-embryos were tested on CIM supplemented with each of the fourteen phytohormone combinations; each treatment had three replicates. (Whole embryos can also be used.) Callus-induction frequency was measured by counting numbers of half embryos undergoing callus induction under a light microscope 2 to 3 weeks after initial culturing.
(§2) Immature zygotic embryos about 1.5 to 2.5 mm in size were dissected and isolated intact under a stereo dissecting microscope from seeds that were surface-sterilized for 10 min in 20% (v/v) bleach (5.25% sodium hypochlorite) followed by three washes in sterile water. The embryos were placed scutellum-side down on CIM.
(§3) Six different CIMs were used to test callus-induction frequencies and callus quality. The CIMs had, respectively, different concentrations of: 2,4-D (1.0 and 2.5 mg/L), BAP (0.01, 0.1 and 0.5 mg/L), and cupric sulfate (CuSO4; 0.1 and 5.0 μM) as shown in Table 7.
(§4) The initial callus-induction frequency was determined using CIM of different compositions. Ten immature embryos from the barley genotypes Golden Promise and Galena were transferred to each CIM. Each CIM contained the following levels of hormones and copper: D, 2.5 mg/L 2,4-D and 0.1 μM CuSO4; DC, 2.5 mg/L 2,4-D and 5.0 μM CuSO4; DB, 2.5 mg/L 2,4-D, 0.1 mg/L BAP, 0.1 μM CuSO4; DBC1, 2.5 mg/L 2,4-D, 0.01 mg/L BAP and 5.0 μM CuSO4; DBC2, 2.5 mg/L 2,4-D, 0.1 mg/L BAP and 5.0 μM CuSO4; DBC3, 1.0 mg/L 2,4-D, 0.5 mg/L BAP and 5.0 μM CuSO4. Callus quality was assessed microscopically and scored on a scale with ++++ designating highest quality and +designating lowest quality. Values were measured three weeks after initial callus induction and represent means of three replicates for each treatment. […] Tissue quality was poor on CIM containing BAP three weeks after induction but improved after two to three transfers on this medium. Only a fraction of scutellar tissues on Galena immature embryos formed callus, while most of the scutellar surface on Golden Promise immature embryos formed high-quality callus.

[1] = test system: Golden Promise immature embryos; experiment: as above; format: cell-based, barley (Hordeum vulgare L.); conditions: Golden Promise half embryos on CIM; 2 to 3 weeks after initial culturing; means ± SD of three replicates
Procedure: as §1, §2, §3, §4

[2] = test system: nontransgenic callus tissues of Golden Promise; experiment: Regeneration via an intermediate-incubation step, nontransgenic callus; format: cell-based, barley; conditions: two-month-old callus of Golden Promise maintained on CIM containing the auxin alone
Procedure: Callus induction was performed as described above using CIM with 2.5 mg/L of 2,4-D or dicamba (no cytokinin). After incubation for three weeks at 24±1° C. in the dark, callus was cut into small pieces (about 3 to 4 mm), then maintained on the same medium with subculturing at three-week intervals.
Ten pieces of two-month-old nontransgenic calli grown on CIM supplemented with either 2,4-D or dicamba in the dark were transferred to RM either directly or following incubation on an IIM.
Two different IIM were used, DBC2 and DBC3. DBC2 medium is CIM containing 2.5 mg/L 2,4-D, 0.1 mg/L BAP, and 5.0 μM copper (cupric sulfate). DBC3 medium is CIM containing 1.0 mg/L 2,4-D, 0.5 mg/L BAP, and 5.0 μM copper. After growing calli on these media for 3-4 weeks under dim light conditions (20 to 30 μE; 16 h light/8 h dark), the numbers of calli producing green sectors or green regenerative structures were counted. Green sectors and small green regenerative structures were then transferred to fresh RM and grown under higher light intensity (45-55 μE). After 3-4 weeks, the numbers of green shoots per callus piece were counted. […]

[3] = test system: Golden Promise immature embryos; experiment: Callus quality on twelve callus-induction media (auxin types, copper); format: cell-based, barley
Procedure: (§5) To examine the effects of different types of auxins and concentrations of copper on callus quality and regenerability in barley, twelve different media were tested, using methods essentially as described in Example 2 above.

calli of Golden Promise = experiment: Regenerability of calli from twelve callus-induction media (auxin types, copper); format: cell-based, barley
Procedure: as §5

[4] = test system: green tissue of Golden Promise, Galena and Harrington; experiment: Selection and regeneration of bombarded green tissues with selective agents; format: cell-based; conditions: bombarded barley green tissues under selection
Procedure: The green regenerative tissues generated and maintained on one or two of these media, DBC2 (comprising 2.5 mg/L 2,4-D, 0.1 mg/L BAP and 5.0 μM CuSO4, Cho et al., 1998) or DBC3 (comprising 1.0 mg/L 2,4-D, 0.5 mg/L BAP and 5.0 μM CuSO4, Cho et al., 1998), were used directly as transformation targets. For bombardment, 3 to 4 mm pieces of green tissue of Golden Promise, Galena and Harrington, removed 3 to 4 months after initiation of the original culture, were osmotically treated on DBC2 or DBC3 medium and bombarded the same day with three different selection constructs, ubi-bar/ubi-uidA, ubi-nptII/ubi-uidA and act-hpt/ubi-uidA. […] Sixteen to 18 hr post-bombardment, green tissues were transferred without osmoticum or selective agent to dim light on DBC2 or DBC3 medium for Golden Promise and Harrington or DBC3 for Galena. Selection with all agents started […] post-bombardment to allow for proliferation of transformed cells in the absence of the cell death resulting from wounding or selection. At that time, tissue was broken into pieces (3-5 mm) and transferred to either DBC2 or DBC3 medium (depending on morphology) with 3 mg/L bialaphos (bar), 20-25 mg/L hygromycin B (hpt) or 30 mg/L G418 (nptII), depending on the construct used. Starting with the third round of selection, levels of selective agent were increased to 45 mg/L bialaphos, 25 mg/L hygromycin B or 40 mg/L G418. […]

| SMILES | Callus Induction Frequency (%) GAL (Galena immature embryos) [%] | Callus Induction Frequency (%) GP [1] [%] | green shoots per callus piece [2] | induction of calli which regenerated green plants (calli of Golden Promise) | albino plants during regeneration of selected tissues [4] | further results |
| --- | --- | --- | --- | --- | --- | --- |
| O=C(O)COc1ccc(Cl)cc1Cl [2,4-D, 2,4-dichlorophenoxyacetic acid] | ~100 | ~100 | 0.35 | – | – | – |
| O=C(O)Cc1c[nH]c2ccccc12 [IAA] | – | – | – | Neither IAA nor NAA was optimal | – | callus quality [3]: poorer callus quality than the other auxins |
| O=C(O)Cc1cccc2ccccc12 [NAA] | – | – | – | Neither IAA nor NAA was optimal | – | – |
| C[C@H](NC(=O)[C@H](C)NC(=O)[C@@H](N)CCP(C)(=O)O)C(=O)O [bialaphos] | – | – | – | – | no albino plants were observed | – |
| COc1c(Cl)ccc(Cl)c1C(=O)O [dicamba] | ~100 | ~100 | 1.15 | – | – | – |
| CN[C@H]1C[C@@H](N)[C@H](O)[C@@H](O[C@@H]2O[C@H](CO)[C@H](O)[C@@H]3OC4(O[C@H]23)O[C@H]([C@@H](N)CO)[C@H](O)[C@H](O)[C@H]4O)[C@@H]1O (some centres unmarked) [hygromycin B] | – | – | – | – | frequently albino plants were observed | – |
